Laboratory results from ChEMBL document CHEMBL3044631, “Synthesis of 2-[4,5-dimethyl-1-(phenylamino)-1H-imidazol-2-ylthio]-N-(thiazole-2-yl)acetamide derivatives and their anticancer activities” (2013).

Legend:
Format in all cases: functional
[1] = system: UACC-62; assay: Anticancer activity against Homo sapiens (human) UACC62 cells assessed as cell growth promotion at 10 uM after 48 hr by SRB assay
[2] = system: UACC-257; assay: Anticancer activity against Homo sapiens (human) UACC257 cells assessed as cell growth promotion at 10 uM after 48 hr by SRB assay
[3] = system: SK-MEL-5; assay: Anticancer activity against Homo sapiens (human) SK-MEL-5 cells assessed as cell growth promotion at 10 uM after 48 hr by SRB assay
[4] = system: Hs-578T; assay: Anticancer activity against Homo sapiens (human) Hs 578T cells assessed as cell growth promotion at 10 uM after 48 hr by SRB assay
[5] = system: MDA-MB-231; assay: Anticancer activity against Homo sapiens (human) MDA-MB-231/ATCC cells assessed as cell growth promotion at 10 uM after 48 hr by SRB assay
[6] = system: MCF7; assay: Anticancer activity against Homo sapiens (human) MCF7 cells assessed as cell growth promotion at 10 uM after 48 hr by SRB assay
[7] = system: PC-3; assay: Anticancer activity against Homo sapiens (human) PC3 cells assessed as cell growth promotion at 10 uM after 48 hr by SRB assay
[8] = system: DU-145; assay: Anticancer activity against Homo sapiens (human) DU145 cells assessed as cell growth promotion at 10 uM after 48 hr by SRB assay
[9] = system: TK-10; assay: Anticancer activity against Homo sapiens (human) TK10 cells assessed as cell growth promotion at 10 uM after 48 hr by SRB assay
[10] = system: SN12C; assay: Anticancer activity against Homo sapiens (human) SN12C cells assessed as cell growth promotion at 10 uM after 48 hr by SRB assay
[11] = system: CAKI-1; assay: Anticancer activity against Homo sapiens (human) CAKI-1 cells assessed as cell growth promotion at 10 uM after 48 hr by SRB assay
[12] = system: ACHN; assay: Anticancer activity against Homo sapiens (human) ACHN cells assessed as cell growth promotion at 10 uM after 48 hr by SRB assay
[13] = system: 786-0; assay: Anticancer activity against Homo sapiens (human) 786-0 cells assessed as cell growth promotion at 10 uM after 48 hr by SRB assay
[14] = system: SK-OV-3; assay: Anticancer activity against Homo sapiens (human) SKOV3 cells assessed as cell growth promotion at 10 uM after 48 hr by SRB assay
[15] = system: NCI/ADR-RES; assay: Anticancer activity against Homo sapiens (human) NCI/ADR-RES cells assessed as cell growth promotion at 10 uM after 48 hr by SRB assay
[16] = system: OVCAR-4; assay: Anticancer activity against Homo sapiens (human) OVCAR4 cells assessed as cell growth promotion at 10 uM after 48 hr by SRB assay
[17] = system: OVCAR-3; assay: Anticancer activity against Homo sapiens (human) OVCAR3 cells assessed as cell growth promotion at 10 uM after 48 hr by SRB assay
[18] = system: MDA-MB-468; assay: Anticancer activity against Homo sapiens (human) MDA-MB-468 cells assessed as cell growth promotion at 10 uM after 48 hr by SRB assay
[19] = system: HCT-15; assay: Anticancer activity against Homo sapiens (human) HCT15 cells assessed as cell growth promotion at 10 uM after 48 hr by SRB assay
[20] = system: HCT-116; assay: Anticancer activity against Homo sapiens (human) HCT116 cells assessed as cell growth promotion at 10 uM after 48 hr by SRB assay
[21] = system: HCC 2998; assay: Anticancer activity against Homo sapiens (human) HCC2998 cells assessed as cell growth promotion at 10 uM after 48 hr by SRB assay
[22] = system: COLO 205; assay: Anticancer activity against Homo sapiens (human) COLO205 cells assessed as cell growth promotion at 10 uM after 48 hr by SRB assay
[23] = system: NCI-H522; assay: Anticancer activity against Homo sapiens (human) NCI-H522 cells assessed as cell growth promotion at 10 uM after 48 hr by SRB assay
[24] = system: HOP-92; assay: Anticancer activity against Homo sapiens (human) HOP92 cells assessed as cell growth promotion at 10 uM after 48 hr by SRB assay
[25] = system: HOP-62; assay: Anticancer activity against Homo sapiens (human) HOP62 cells assessed as cell growth promotion at 10 uM after 48 hr by SRB assay
[26] = system: EKVX; assay: Anticancer activity against Homo sapiens (human) EKVX cells assessed as cell growth promotion at 10 uM after 48 hr by SRB assay
[27] = system: A549; assay: Anticancer activity against Homo sapiens (human) A549/ATCC cells assessed as cell growth promotion at 10 uM after 48 hr by SRB assay
[28] = system: RPMI-8226; assay: Anticancer activity against Homo sapiens (human) RPMI8226 cells assessed as cell growth promotion at 10 uM after 48 hr by SRB assay
[29] = system: MOLT-4; assay: Anticancer activity against Homo sapiens (human) MOLT4 cells assessed as cell growth promotion at 10 uM after 48 hr by SRB assay
[30] = system: K562; assay: Anticancer activity against Homo sapiens (human) K562 cells assessed as cell growth promotion at 10 uM after 48 hr by SRB assay
[31] = system: HL-60(TB); assay: Anticancer activity against Homo sapiens (human) HL-60(TB) cells assessed as cell growth promotion at 10 uM after 48 hr by SRB assay
[32] = system: SK-MEL-2; assay: Anticancer activity against Homo sapiens (human) SK-MEL-2 cells assessed as cell growth promotion at 10 uM after 48 hr by SRB assay
[33] = system: MDA-MB-435; assay: Anticancer activity against Homo sapiens (human) MDA-MB-435 cells assessed as cell growth promotion at 10 uM after 48 hr by SRB assay
[34] = system: Malme-3M; assay: Anticancer activity against Homo sapiens (human) MALME-3M cells assessed as cell growth promotion at 10 uM after 48 hr by SRB assay
[35] = system: SF-295; assay: Anticancer activity against Homo sapiens (human) SF295 cells assessed as cell growth promotion at 10 uM after 48 hr by SRB assay
[36] = system: SF-539; assay: Anticancer activity against Homo sapiens (human) SF539 cells assessed as cell growth promotion at 10 uM after 48 hr by SRB assay
[37] = system: SF-268; assay: Anticancer activity against Homo sapiens (human) SF268 cells assessed as cell growth promotion at 10 uM after 48 hr by SRB assay
[38] = system: HT-29; assay: Anticancer activity against Homo sapiens (human) HT-29 cells assessed as cell growth promotion at 10 uM after 48 hr by SRB assay
[39] = system: KM12; assay: Anticancer activity against Homo sapiens (human) KM12 cells assessed as cell growth promotion at 10 uM after 48 hr by SRB assay
[40] = system: NCI-H460; assay: Anticancer activity against Homo sapiens (human) NCI-H460 cells assessed as cell growth promotion at 10 uM after 48 hr by SRB assay

For `Cc1ccc(Nn2c(SCC(=O)Nc3nc(-c4ccccc4)cs3)nc(C)c2C)cc1`, the Activity [1] was 51.82%, the Activity [2] was 54.08% and the Activity [3] was 66.75%. It also gave an Activity [4] of 105.97%, an Activity [5] of 46% and an Activity [6] of 24.07%. It also gave an Activity [7] of 71.8%, an Activity [8] of 83.4% and an Activity [9] of 72.7%. The Activity [10] was 64.31%, the Activity [11] was 53.6% and the Activity [12] was 60.88%. For the same compound, the Activity [13] was 82.27%, the Activity [14] was 69.62% and the Activity [15] was 34.4%. The Activity [16] was 25.36%, the Activity [17] was 78.47% and the Activity [18] was 17.71%. The Activity [19] was 67.18%, the Activity [20] was 40.22% and the Activity [21] was 91.96%. For the same compound, the Activity [22] was 32.48%, the Activity [23] was 49.7% and the Activity [24] was 59.94%. For the same compound, the Activity [25] was 67.17%, the Activity [26] was 49.68% and the Activity [27] was 46.29%. For the same compound, the Activity [28] was 55.78%, the Activity [29] was 54.72% and the Activity [30] was 37.67%. It also gave an Activity [31] of 63.8%, an Activity [32] of 81.38% and an Activity [33] of 76.71%. The Activity [34] was 92.03%, the Activity [35] was 46.1% and the Activity [36] was 73.68%. For the same compound, the Activity [37] was 81.68%, the Activity [38] was 56.13% and the Activity [39] was 82.85%. It also gave an Activity [40] of 78.13%.
